Test results: patent publication US20050182040A1, “Benzamide derivatives” (priority 2002, published 2005)

Target: T1, Rho kinase (Bos taurus, UniProt Q28021)
T1 construct: Rho kinase was selectively immobilized from the bovine brain extract fraction; from tissue; host or cells: bovine brain gray matter extract, captured on an anti-ROKII peptide antibody plate
Assay: Assay of the inhibition of phosphorylation by Rho kinase
Assay type: biochemical
Conditions: Rho kinase immobilized from bovine brain extract fraction on anti-Rho kinase antibody plate; 0.1 μM ATP ([γ-32P]ATP), histone (HF2A) substrate; room temperature, 4 hours
Description: Assay of the inhibition of phosphorylation by Rho kinase
A bovine brain extract fraction was prepared as follows. That is, a piece of gray matter was minced from bovine brain and suspended in a buffer solution for immunoprecipitation (10 mM tris(hydroxymethyl)aminomethane (Tris) (pH 7.5), 1% Triton X-100, 0.5% NP-40, 150 mM NaCl, 20 mM sodium fluoride, 1 mM ethylenediaminetetraacetic acid (EDTA), 1 mM ethylene glycol bis(β-aminoethyl ether)-N,N,N′,N′-tetraacetic acid (EGTA) and 0.2 mM phenylmethylsulfonyl fluoride (PMSF)) in two volumes of the gray matter. The tissue was homogenized by the use of a Potter type homogenizer made of polytetrafluoroethylene. After the homogenate was centrifuged at 20,000 g for 15 minutes, the supernatant was collected and then subjected to ultracentrifugation at 100,000 g for 60 minutes. The resulting supernatant was used as a bovine brain extract fraction.
An anti-Rho kinase antibody immobilized plate was prepared as follows. That is, a secondary antibody (anti-goat IgG (Fc) antibody) was diluted 300-fold with phosphate-buffered saline (PBS) (1 μl antibody/300 μl PBS), and 100 μl of the resulting dilution was added to each well of a 96-well ELISA plate. After coating at room temperature for 2 hours, the supernatant was removed. Thereafter, 100 μl of PBS was added and then the supernatant was removed (this washing operation was carried out twice). After the washing, 100 μl of a blocking buffer solution (0.05% Tween 20 and 0.25% bovine serum albumin (fatty acid free)/PBS) was added, followed by blocking at room temperature for 1 hour. After the blocking, each well was washed twice with 100 μl of the blocking buffer solution, and 100 μl of a primary antibody (anti-ROKII (Rho kinase) peptide antibody) diluted 200-fold (0.5 μl (0.1 μg)/100 μl) with PBS was added, followed by coating at room temperature for 2 hours. After the coating, each well was washed once with 100 μl of the blocking buffer solution. In addition, 100 μl of the blocking buffer solution was added to obtain an anti-Rho kinase antibody immobilized plate.
Using the aforesaid plate, Rho kinase was selectively immobilized from the bovine brain extract fraction, and phosphorylation by Rho kinase was assayed. To each well of the antibody-immobilized plate was added 100 μl of a bovine brain extract solution prepared so as to have a concentration of 1.5 mg/ml, and the reactions were incubated at 4° C. for 1 hour to immobilize Rho kinase on the plate. After completion of the reaction, the supernatant was removed and each well was washed three times with 100 μl of the buffer solution for immunoprecipitation. In addition, each well was washed three times with 100 μl of buffer solution A (50 mM Tris (pH 7.5), 10 mM MgCl2 and 150 mM NaCl). To each well of the plate freed from the supernatant was added 40 μl of the aforesaid buffer solution for reaction (50 mM Tris-HCl (pH 7.5), 2 mM EDTA and 10 mM MgCl2). Further, adenosine 5′-triphosphate (ATP) buffer (0.1 μM ATP (containing 6 nM [v-^32P]ATP) and 10 μg histone (HF2A)) containing each compound was prepared, and 10 μl of this solution was added to each well of the plate to initiate the reaction. The reactions were carried out at room temperature for 4 hours. The reaction was terminated by the addition of a phosphoric acid solution of a final concentration of 75 mM and 50 μM ATP. After completion of the reaction, 50 μl of the reaction solutions were spotted onto a phosphocellulose filter for Beta Plate 1205 (Wallac) only. After completion of the spot, the filter was washed with 150 ml of a 75 mM phosphoric acid solution for 10 minutes. This washing operation was repeated three times. After completion of the washing, the filter was dried and then wrapped in a cellophane bag, and 10 ml of a liquid scintillation cocktail was added. The amount of energy (β-ray radioactivity count) trapped in the filter was measured with Beta Plate 1205. […]

T1 sequence (Q28021 whole entry): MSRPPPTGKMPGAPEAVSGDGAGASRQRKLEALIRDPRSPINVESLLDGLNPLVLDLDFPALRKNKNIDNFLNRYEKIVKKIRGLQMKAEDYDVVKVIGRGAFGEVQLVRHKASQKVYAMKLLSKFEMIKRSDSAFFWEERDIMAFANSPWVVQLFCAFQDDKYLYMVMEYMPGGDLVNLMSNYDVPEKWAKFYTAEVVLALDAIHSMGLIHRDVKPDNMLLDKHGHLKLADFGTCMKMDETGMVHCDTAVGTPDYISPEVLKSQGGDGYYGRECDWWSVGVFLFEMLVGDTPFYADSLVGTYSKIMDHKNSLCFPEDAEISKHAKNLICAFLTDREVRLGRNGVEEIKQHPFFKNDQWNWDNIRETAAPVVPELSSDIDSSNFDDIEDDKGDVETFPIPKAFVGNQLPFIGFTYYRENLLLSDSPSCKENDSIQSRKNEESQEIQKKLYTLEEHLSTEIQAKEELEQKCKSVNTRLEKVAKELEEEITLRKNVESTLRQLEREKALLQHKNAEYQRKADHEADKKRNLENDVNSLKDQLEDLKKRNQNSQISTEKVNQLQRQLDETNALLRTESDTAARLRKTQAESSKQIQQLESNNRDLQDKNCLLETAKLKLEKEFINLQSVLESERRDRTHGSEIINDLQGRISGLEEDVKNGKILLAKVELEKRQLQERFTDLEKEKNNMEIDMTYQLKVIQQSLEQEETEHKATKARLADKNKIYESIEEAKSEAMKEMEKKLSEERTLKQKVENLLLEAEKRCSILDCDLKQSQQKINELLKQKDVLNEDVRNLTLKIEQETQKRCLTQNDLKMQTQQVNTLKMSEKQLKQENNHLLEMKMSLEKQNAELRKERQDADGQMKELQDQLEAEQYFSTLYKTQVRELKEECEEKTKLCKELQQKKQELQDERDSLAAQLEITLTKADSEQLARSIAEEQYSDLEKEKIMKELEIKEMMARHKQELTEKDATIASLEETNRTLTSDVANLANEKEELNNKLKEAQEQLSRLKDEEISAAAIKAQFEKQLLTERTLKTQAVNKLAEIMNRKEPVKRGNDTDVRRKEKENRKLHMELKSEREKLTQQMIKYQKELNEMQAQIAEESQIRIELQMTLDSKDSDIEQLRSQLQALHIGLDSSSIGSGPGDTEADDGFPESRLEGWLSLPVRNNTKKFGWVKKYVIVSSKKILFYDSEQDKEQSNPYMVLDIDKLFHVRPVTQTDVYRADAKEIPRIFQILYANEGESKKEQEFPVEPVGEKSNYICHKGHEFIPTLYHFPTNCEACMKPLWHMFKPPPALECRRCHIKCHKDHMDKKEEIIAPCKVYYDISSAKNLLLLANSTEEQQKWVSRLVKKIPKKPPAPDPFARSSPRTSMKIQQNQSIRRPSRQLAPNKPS

Row | SMILES | IC50 [nM]
1 | NC(=O)c1ccc(NC2CCN(Cc3ccccc3)CC2)cc1 [Example 10, 4-[(1-benzylpiperidin-4-yl)amino]benzamide] | 2000
2 | COc1cc(N[C@H]2CC[C@H](N)CC2)c(Cl)cc1C(N)=O [Example 113, 4-[(trans-4-aminocyclohexyl)amino]-5-chloro-2-methoxybenzamide] | 21.8
3 | NC(=O)c1cc(Cl)c(N[C@H]2CC[C@H](N)CC2)cc1F [Example 141, 4-[trans-(4-aminocyclohexyl)-amino]-5-chloro-2-fluorobenzamide] | 28.7
4 | COc1cc(N[C@H]2CC[C@H](N)CC2)c(F)cc1C(N)=O [Example 158, 4-[(trans-4-aminocyclo-hexyl)amino]-5-fluoro-2-methoxybenzamide] | 28.4
5 | COc1cc(O[C@H]2CC[C@H](N)CC2)c(Cl)cc1C(N)=O [Example 159, 4-[(trans-4-aminocyclohexyl)-oxy]-5-chloro-2-methoxybenzamide] | 24.4
6 | NC(=O)c1cc(F)c(N[C@H]2CC[C@H](N)CC2)cc1F [Example 162, 4-[trans-(4-aminocyclohexyl)-amino]-2,5-difluorobenzamide] | 26.4
7 | NC(=O)c1cc(Br)c(N[C@H]2CC[C@H](N)CC2)cc1F [Example 163, 4-[trans-(4-aminocyclohexyl)-amino]-5-bromo-2-fluorobenzamide] | 24.8

System: not given
Assay: not given
Conditions: not given

Row | SMILES | melting point
8 | Cl.NC(=O)c1ccc(NC2CCNCC2)cc1 | 292 to 294 °C (dec.)
9 | COc1cc(NCc2ccncc2)ccc1C(N)=O [Example 128, 2-Methoxy-4-[(pyridin-4-ylmethyl)amino]-benzamide] | 180 to 183 °C

Continued, values first:

Row | melting point | SMILES
10 | 192 to 193 °C | NC(=O)c1ccc(NC2CCN(Cc3ccccc3)CC2)cc1 [Example 10, 4-[(1-benzylpiperidin-4-yl)amino]benzamide]
11 | 211 to 212 °C | NC(=O)c1ccc(NC(=O)C2CCCN(Cc3ccccc3)C2)cc1 (centres unmarked) [Example 13, N-[4-(aminocarbonyl)phenyl]-1-benzylpiperidine-3-carboxamide]
12 | 166 to 168 °C | NC(=O)c1ccc(OC2CCN(Cc3ccccc3)CC2)cc1 [Example 25, 4-[(1-benzylpiperidin-4-yl)oxy]benzamide]
13 | 155 to 157 °C | COc1cc(NC2CCN(Cc3ccccc3)CC2)ccc1C(N)=O [Example 28, 4-[(1-benzylpiperidin-4-yl)amino]-2-methoxybenzamide]
14 | 175 to 176 °C | COc1cc(NCc2ccccc2)ccc1C(N)=O [Example 85, 4-(benzylamino)-2-methoxybenzamide]
